The results in this text go back to the NIST ThermoML archive (doi:10.1016/j.jct.2016.07.021).

The data set in a line: activity coefficient (dimensionless); of the first substance listed, at infinite dilution; xn = mol fraction of the nth substance listed. The following applies: 101.33 kPa, Liquid, Chromatography, x1 = 0.

Numbers after ± are expanded uncertainties.

As to `ClCCl` [dichloromethane] + CCCCCCn1cc[n+](C)c1C.O=S(=O)([N-]S(=O)(=O)C(F)(F)F)C(F)(F)F, the activity coefficient is 0.74 ± 0.08 (313.15 K); 0.73 ± 0.08 (323.15 K); 0.72 ± 0.08 (333.15 K); 0.71 ± 0.07 (343.15 K); 0.7 ± 0.07 (353.15 K).

Regarding `C1CCCCC1` [cyclohexane] + CCCCCCn1cc[n+](C)c1C.O=S(=O)([N-]S(=O)(=O)C(F)(F)F)C(F)(F)F, the activity coefficient by setting is: (313.15 K) 5.33 ± 0.56; (323.15 K) 5.14 ± 0.54; (333.15 K) 4.99 ± 0.52; (343.15 K) 4.88 ± 0.51; (353.15 K) 4.74 ± 0.5.

As for `Cc1ccc(C)cc1` [1,4-dimethylbenzene] + CCCCCCn1cc[n+](C)c1C.O=S(=O)([N-]S(=O)(=O)C(F)(F)F)C(F)(F)F, the activity coefficient by setting is: (313.15 K) 1.39 ± 0.14; (323.15 K) 1.42 ± 0.15; (333.15 K) 1.46 ± 0.15; (343.15 K) 1.5 ± 0.16; (353.15 K) 1.55 ± 0.16.

Take `CC1CCCCC1` [methylcyclohexane] + CCCCCCn1cc[n+](C)c1C.O=S(=O)([N-]S(=O)(=O)C(F)(F)F)C(F)(F)F: the activity coefficient (313.15 K) was 6.48 ± 0.68; the activity coefficient (323.15 K) stood at 6.26 ± 0.66; the activity coefficient (333.15 K) stood at 6.06 ± 0.64; the activity coefficient (343.15 K) came to 5.81 ± 0.61; the activity coefficient (353.15 K) was determined as 5.62 ± 0.59.

For `CCOC(C)=O` [ethyl acetate] + CCCCCCn1cc[n+](C)c1C.O=S(=O)([N-]S(=O)(=O)C(F)(F)F)C(F)(F)F, the activity coefficient is, setting by setting: (313.15 K) 0.83 ± 0.09; (323.15 K) 0.86 ± 0.09; (333.15 K) 0.88 ± 0.09; (343.15 K) 0.91 ± 0.09; (353.15 K) 0.93 ± 0.09.

As to `Cc1cccc(C)c1` [1,3-dimethylbenzene] + CCCCCCn1cc[n+](C)c1C.O=S(=O)([N-]S(=O)(=O)C(F)(F)F)C(F)(F)F, the activity coefficient reads like this: (313.15 K) 1.34 ± 0.14; (323.15 K) 1.38 ± 0.14; (333.15 K) 1.41 ± 0.15; (343.15 K) 1.44 ± 0.15; (353.15 K) 1.47 ± 0.15.

In the case of `C1=CCCCC1` [cyclohexene] + CCCCCCn1cc[n+](C)c1C.O=S(=O)([N-]S(=O)(=O)C(F)(F)F)C(F)(F)F, the activity coefficient is 3.36 ± 0.35 (313.15 K); 3.29 ± 0.35 (323.15 K); 3.19 ± 0.34 (333.15 K); 3.06 ± 0.32 (343.15 K); 2.93 ± 0.31 (353.15 K).

For the molecule `CCCCCC` [hexane] + CCCCCCn1cc[n+](C)c1C.O=S(=O)([N-]S(=O)(=O)C(F)(F)F)C(F)(F)F, the activity coefficient by setting is: (313.15 K) 7.6 ± 0.8; (323.15 K) 7.41 ± 0.78; (333.15 K) 7.16 ± 0.75; (343.15 K) 6.96 ± 0.73; (353.15 K) 6.78 ± 0.71.

Regarding `CCCCCCCCCC` [decane] + CCCCCCn1cc[n+](C)c1C.O=S(=O)([N-]S(=O)(=O)C(F)(F)F)C(F)(F)F, the activity coefficient by setting is: (313.15 K) 26.8 ± 2.8; (323.15 K) 25 ± 2.6; (333.15 K) 23.3 ± 2.5; (343.15 K) 21.6 ± 2.3; (353.15 K) 20.1 ± 2.1.

For `Cc1ccccc1C` [1,2-dimethylbenzene] + CCCCCCn1cc[n+](C)c1C.O=S(=O)([N-]S(=O)(=O)C(F)(F)F)C(F)(F)F, the activity coefficient is 1.17 ± 0.12 (313.15 K); 1.19 ± 0.12 (323.15 K); 1.21 ± 0.12 (333.15 K); 1.22 ± 0.13 (343.15 K); 1.24 ± 0.13 (353.15 K).

Turning to `CC(C)=O` [acetone] + CCCCCCn1cc[n+](C)c1C.O=S(=O)([N-]S(=O)(=O)C(F)(F)F)C(F)(F)F, the activity coefficient worked out at 0.4 ± 0.05 (313.15 K); 0.42 ± 0.05 (323.15 K); 0.43 ± 0.05 (333.15 K); 0.45 ± 0.05 (343.15 K); 0.46 ± 0.05 (353.15 K).

As to `ClC(Cl)Cl` [trichloromethane] + CCCCCCn1cc[n+](C)c1C.O=S(=O)([N-]S(=O)(=O)C(F)(F)F)C(F)(F)F, the activity coefficient amounted to 0.77 ± 0.08 (313.15 K); 0.78 ± 0.08 (323.15 K); 0.79 ± 0.08 (333.15 K); 0.81 ± 0.08 (343.15 K); 0.82 ± 0.08 (353.15 K).

With `CCc1ccccc1` [ethylbenzene] + CCCCCCn1cc[n+](C)c1C.O=S(=O)([N-]S(=O)(=O)C(F)(F)F)C(F)(F)F, the activity coefficient reads like this: (313.15 K) 1.34 ± 0.14; (323.15 K) 1.36 ± 0.14; (333.15 K) 1.38 ± 0.14; (343.15 K) 1.4 ± 0.14; (353.15 K) 1.42 ± 0.15.

For `Cc1ccccc1` [toluene] + CCCCCCn1cc[n+](C)c1C.O=S(=O)([N-]S(=O)(=O)C(F)(F)F)C(F)(F)F, the activity coefficient runs as follows: (313.15 K) 0.96 ± 0.1; (323.15 K) 0.99 ± 0.1; (333.15 K) 1.01 ± 0.1; (343.15 K) 1.03 ± 0.1; (353.15 K) 1.05 ± 0.11.

Turning to `CCCCCCCC` [octane] + CCCCCCn1cc[n+](C)c1C.O=S(=O)([N-]S(=O)(=O)C(F)(F)F)C(F)(F)F, the activity coefficient stood at 12.8 ± 1.4 (313.15 K); 11.7 ± 1.2 (323.15 K); 10.6 ± 1.1 (333.15 K); 9.82 ± 1 (343.15 K); 9.16 ± 0.96 (353.15 K).

Take `CCCCCCCCC` [nonane] + CCCCCCn1cc[n+](C)c1C.O=S(=O)([N-]S(=O)(=O)C(F)(F)F)C(F)(F)F: the activity coefficient (313.15 K) stood at 21.5 ± 2.3; the activity coefficient (323.15 K) was 19.8 ± 2.1; the activity coefficient (333.15 K) was found to be 18.1 ± 1.9; the activity coefficient (343.15 K) turned out to be 16.6 ± 1.7; the activity coefficient (353.15 K) amounted to 15.1 ± 1.6.

Consider `CC#N` [acetonitrile] + CCCCCCn1cc[n+](C)c1C.O=S(=O)([N-]S(=O)(=O)C(F)(F)F)C(F)(F)F, for which the activity coefficient stood at 0.45 ± 0.05 (313.15 K); 0.46 ± 0.05 (323.15 K); 0.47 ± 0.05 (333.15 K); 0.48 ± 0.05 (343.15 K); 0.48 ± 0.05 (353.15 K).

In the case of `C1CCOC1` [tetrahydrofuran] + CCCCCCn1cc[n+](C)c1C.O=S(=O)([N-]S(=O)(=O)C(F)(F)F)C(F)(F)F, the activity coefficient is, setting by setting: (313.15 K) 0.5 ± 0.06; (323.15 K) 0.51 ± 0.06; (333.15 K) 0.53 ± 0.06; (343.15 K) 0.55 ± 0.06; (353.15 K) 0.58 ± 0.06.

`c1ccccc1` [benzene] + CCCCCCn1cc[n+](C)c1C.O=S(=O)([N-]S(=O)(=O)C(F)(F)F)C(F)(F)F: the activity coefficient reads like this: (313.15 K) 0.72 ± 0.08; (323.15 K) 0.72 ± 0.08; (333.15 K) 0.74 ± 0.08; (343.15 K) 0.75 ± 0.08; (353.15 K) 0.76 ± 0.08.

For `CCCCC` [pentane] + CCCCCCn1cc[n+](C)c1C.O=S(=O)([N-]S(=O)(=O)C(F)(F)F)C(F)(F)F, the activity coefficient runs as follows: (313.15 K) 5.64 ± 0.59; (323.15 K) 5.55 ± 0.58; (333.15 K) 5.45 ± 0.57; (343.15 K) 5.33 ± 0.56; (353.15 K) 5.21 ± 0.55.

As for `ClC(Cl)(Cl)Cl` [tetrachloromethane] + CCCCCCn1cc[n+](C)c1C.O=S(=O)([N-]S(=O)(=O)C(F)(F)F)C(F)(F)F, the activity coefficient runs as follows: (313.15 K) 2.31 ± 0.24; (323.15 K) 2.26 ± 0.24; (333.15 K) 2.19 ± 0.23; (343.15 K) 2.15 ± 0.23; (353.15 K) 2.09 ± 0.22.

In the case of `CCCCCCC` [heptane] + CCCCCCn1cc[n+](C)c1C.O=S(=O)([N-]S(=O)(=O)C(F)(F)F)C(F)(F)F, the activity coefficient runs as follows: (313.15 K) 10.2 ± 1.1; (323.15 K) 9.79 ± 1; (333.15 K) 9.47 ± 1; (343.15 K) 9.2 ± 0.97; (353.15 K) 8.83 ± 0.93.
